From ChEMBL document CHEMBL1157622, “Synthesis and antiproliferative evaluation of certain indolo[3,2-c]quinoline derivatives” (Bioorg Med Chem, 2010) come the findings set out here.

The subject of experiment [1] is HeLa. Put plainly: Antiproliferative activity against human HeLa cells by MTT assay. The format is functional, cell-based.
For the next experiment, the system named is A549. The experiment in a line: Antiproliferative activity against human A549 cells by MTT assay. The format is functional, cell-based.
Experiment [2] can be described thus: Antiproliferative activity against human SKHep cells by MTT assay. The format is functional, cell-based.
Experiment [3] relates to PC-3. Put plainly: Antiproliferative activity against human PC3 cells by MTT assay. The format is functional, cell-based.
The test system of another experiment is Detroit 551. The experiment in a line: Antiproliferative activity against human Detroit 551 cells by MTT assay. The format is cell-based.
Experiment [4] has as its target T1, DNA topoisomerase 1 (Homo sapiens) (UniProt P11387).
T1 sequence (whole entry): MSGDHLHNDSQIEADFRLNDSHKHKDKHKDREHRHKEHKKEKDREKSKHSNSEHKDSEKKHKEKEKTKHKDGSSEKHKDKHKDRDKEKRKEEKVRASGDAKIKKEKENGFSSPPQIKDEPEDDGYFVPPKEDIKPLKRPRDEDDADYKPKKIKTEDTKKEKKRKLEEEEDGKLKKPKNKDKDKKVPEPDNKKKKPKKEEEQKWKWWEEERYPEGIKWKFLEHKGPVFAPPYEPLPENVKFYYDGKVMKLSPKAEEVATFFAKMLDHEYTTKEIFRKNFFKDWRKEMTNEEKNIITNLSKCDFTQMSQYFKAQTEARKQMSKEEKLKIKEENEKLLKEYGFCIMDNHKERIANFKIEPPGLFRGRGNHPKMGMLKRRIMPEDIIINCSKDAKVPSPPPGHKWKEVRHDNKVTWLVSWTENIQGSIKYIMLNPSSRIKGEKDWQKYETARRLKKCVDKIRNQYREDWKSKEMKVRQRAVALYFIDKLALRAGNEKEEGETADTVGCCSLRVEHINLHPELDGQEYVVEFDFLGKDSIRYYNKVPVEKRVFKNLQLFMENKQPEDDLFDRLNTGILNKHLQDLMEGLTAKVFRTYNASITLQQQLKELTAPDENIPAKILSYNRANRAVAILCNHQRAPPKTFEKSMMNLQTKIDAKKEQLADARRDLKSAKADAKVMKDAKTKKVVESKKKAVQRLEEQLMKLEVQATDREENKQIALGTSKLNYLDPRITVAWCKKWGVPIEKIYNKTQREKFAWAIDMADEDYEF
The experiment in a line: Inhibition of topoisomerase 1-mediated unwinding of supercoiled plasmid DNA at 10 uM.

In experiment [5] the target is T1, DNA topoisomerase 1 (Homo sapiens). The experiment in a line: Inhibition of topoisomerase 1-mediated unwinding of supercoiled plasmid DNA at 0.1 to 1.0 uM.
In experiment [6] the target is DNA topoisomerase 2-alpha (Homo sapiens) (UniProt P11388). Put plainly: Inhibition of DNA topoisomerase 2-mediated unwinding of supercoiled pBR322 DNA.
Experiment [7] concerns HeLa. Put plainly: Antiproliferative activity against human HeLa cells at 0.3 to 1.0 uM after 48 hrs by MTT assay. The format is functional.
For experiment [8], the system named is HeLa. Put plainly: Antiproliferative activity against human HeLa cells assessed as reduction in colony number after 48 hrs by clonogenic assay. The format is functional, cell-based.
Experiment [9] relates to HeLa. Put plainly: Antiproliferative activity against human HeLa cells assessed as reduction in colony size after 48 hrs by clonogenic assay. The format is functional, cell-based.
Experiment [10] deals with PC-3. Put plainly: Cell cycle arrest in human PC3 cells by accumulation at subG1 phase at 0.1 uM after 48 hrs by propidium iodide staining-based flow cytometry (Rvb=0.8%). The format is functional.
Experiment [11] concerns PC-3. Put plainly: Cell cycle arrest in human PC3 cells by accumulation at subG1 phase at 0.3 uM after 48 hrs by propidium iodide staining-based flow cytometry (Rvb=0.8%). The format is functional.
Experiment [12] deals with PC-3. The experiment in a line: Cell cycle arrest in human PC3 cells by accumulation at G1 phase at 0.1 uM after 48 hrs by propidium iodide staining-based flow cytometry (Rvb=68.4%). The format is functional.
The test system of experiment [13] is PC-3. The experiment in a line: Cell cycle arrest in human PC3 cells by accumulation at G1 phase at 0.3 uM after 48 hrs by propidium iodide staining-based flow cytometry (Rvb=68.4%). The format is functional.
The subject of experiment [14] is PC-3. The experiment in a line: Cell cycle arrest in human PC3 cells by accumulation at S phase at 0.1 uM after 48 hrs by propidium iodide staining-based flow cytometry (Rvb=11.2%). The format is functional.
The subject of experiment [15] is PC-3. The experiment in a line: Cell cycle arrest in human PC3 cells by accumulation at S phase at 0.3 uM after 48 hrs by propidium iodide staining-based flow cytometry (Rvb=11.2%). The format is functional.
The test system of experiment [16] is PC-3. Put plainly: Cell cycle arrest in human PC3 cells by accumulation at G2/M phase at 0.1 uM after 48 hrs by propidium iodide staining-based flow cytometry (Rvb=19.4%). The format is functional.
For experiment [17], the system named is PC-3. The experiment in a line: Cell cycle arrest in human PC3 cells by accumulation at G2/M phase at 0.3 uM after 48 hrs by propidium iodide staining-based flow cytometry (Rvb=19.4%). The format is functional.
Experiment [18] concerns PC-3. The experiment in a line: Induction of apoptosis in human PC3 cells assessed as PARP cleavage at 0.1 uM after 48 hrs by Western blot. The format is functional, cell-based.
Experiment [19] relates to PC-3. The experiment in a line: Induction of apoptosis in human PC3 cells assessed as caspase 3 activation at 0.1 uM after 48 hrs by Western blot. The format is functional, cell-based.
The subject of experiment [20] is PC-3. Put plainly: Induction of apoptosis in human PC3 cells assessed as gammaH2AX phosphorylation mediated DNA damage at 0.1 uM after 48 hrs by Western blot. The format is functional, cell-based.

pIC50: −log10 of the molar value. The source made the active and inactive calls. The calls are words filed in the database; no cut-off is given here.

Sequence of DNA topoisomerase 2-alpha (Homo sapiens) (P11388 whole entry): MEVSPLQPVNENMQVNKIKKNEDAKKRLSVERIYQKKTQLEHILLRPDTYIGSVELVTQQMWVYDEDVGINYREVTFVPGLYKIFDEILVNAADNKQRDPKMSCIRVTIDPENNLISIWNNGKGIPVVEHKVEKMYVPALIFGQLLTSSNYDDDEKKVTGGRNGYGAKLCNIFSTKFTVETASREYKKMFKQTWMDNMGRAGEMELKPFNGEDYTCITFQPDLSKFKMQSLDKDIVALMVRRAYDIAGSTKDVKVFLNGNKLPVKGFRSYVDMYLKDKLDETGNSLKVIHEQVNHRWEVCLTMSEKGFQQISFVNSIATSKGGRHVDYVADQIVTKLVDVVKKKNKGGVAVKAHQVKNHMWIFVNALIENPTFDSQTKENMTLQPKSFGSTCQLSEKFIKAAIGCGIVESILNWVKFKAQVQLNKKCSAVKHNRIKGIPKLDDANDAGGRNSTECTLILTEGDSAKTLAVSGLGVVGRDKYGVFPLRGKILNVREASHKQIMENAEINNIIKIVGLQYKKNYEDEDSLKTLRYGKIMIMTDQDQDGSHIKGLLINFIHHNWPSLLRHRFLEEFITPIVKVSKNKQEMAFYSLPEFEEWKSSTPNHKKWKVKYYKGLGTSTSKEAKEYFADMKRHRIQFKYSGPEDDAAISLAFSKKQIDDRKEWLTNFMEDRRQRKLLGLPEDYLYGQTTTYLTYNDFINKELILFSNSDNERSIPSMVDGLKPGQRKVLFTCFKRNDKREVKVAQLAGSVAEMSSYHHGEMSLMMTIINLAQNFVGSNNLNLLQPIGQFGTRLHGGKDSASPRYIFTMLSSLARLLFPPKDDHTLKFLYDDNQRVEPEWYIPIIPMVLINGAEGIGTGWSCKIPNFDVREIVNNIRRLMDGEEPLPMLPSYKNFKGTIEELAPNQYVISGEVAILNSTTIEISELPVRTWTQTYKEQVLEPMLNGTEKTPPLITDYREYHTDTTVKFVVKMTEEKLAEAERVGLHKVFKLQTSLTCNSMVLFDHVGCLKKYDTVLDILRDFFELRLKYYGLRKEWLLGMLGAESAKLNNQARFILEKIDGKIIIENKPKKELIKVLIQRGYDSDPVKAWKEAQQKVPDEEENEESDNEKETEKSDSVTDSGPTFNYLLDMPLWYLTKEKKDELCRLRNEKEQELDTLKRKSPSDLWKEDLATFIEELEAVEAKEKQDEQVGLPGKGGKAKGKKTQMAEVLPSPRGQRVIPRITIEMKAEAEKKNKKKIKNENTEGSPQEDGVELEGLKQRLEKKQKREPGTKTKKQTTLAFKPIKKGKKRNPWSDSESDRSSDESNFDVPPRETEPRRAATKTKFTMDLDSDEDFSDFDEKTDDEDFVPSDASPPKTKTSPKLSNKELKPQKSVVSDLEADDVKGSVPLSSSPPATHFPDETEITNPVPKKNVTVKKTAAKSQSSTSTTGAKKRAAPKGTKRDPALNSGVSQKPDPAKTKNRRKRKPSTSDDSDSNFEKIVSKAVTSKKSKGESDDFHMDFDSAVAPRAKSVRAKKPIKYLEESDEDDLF

For the compound `c1ccc2c(c1)nc(NCCN1CCNCC1)c1c3ccccc3[nH]c21`, the negative logarithm of the IC50 (pIC50) in the experiment with HeLa [1] is 6.17; in the experiment on A549 it was 6.28; in experiment [2], 6.42; with PC-3 [3], 5.75; in the experiment with Detroit 551, 5.59.
With `c1ccc2c(c1)nc(NCCCCCCCNc1nc3ccccc3c3[nH]c4ccccc4c13)c1c3ccccc3[nH]c21`, the pIC50 is 5.92 in the experiment with HeLa [1], 5.92 in the experiment with A549, 5.79 in experiment [2] and 5.18 with PC-3 [3].
Regarding `c1ccc2c(c1)nc(NCCN1CCOCC1)c1c3ccccc3[nH]c21`, the negative-log IC50 (pIC50) in the experiment with HeLa [1] was 6.06; in the experiment with A549, 5.95; in [2], 5.89; in the experiment on PC-3 [3], 5.55.
The corresponding values for `NCCCCCCNc1nc2ccccc2c2[nH]c3ccccc3c12` are 7.14, 7.08, 5.60 and 5.59.
In the case of `OCCNCCNc1nc2ccccc2c2[nH]c3ccccc3c12`, the negative logarithm of the IC50 (pIC50) in the experiment on HeLa [1] is 6.13; in the experiment on A549, 6.15; in experiment [2], 6.14; in the experiment on PC-3 [3] it was 5.24; with Detroit 551, 5.76.
For `COc1ccc(CCNc2nc3ccccc3c3[nH]c4ccccc4c23)cc1OC` the same measures were 6.28, 5.27, 5.23, 5.05 and 4.71.
The corresponding values for `CN(C)CCCNc1nc2ccccc2c2[nH]c3ccccc3c12` are 6.07, 6.30, 6.10, 5.44 and 5.66.
With `Oc1ccccc1Nc1nc2ccccc2c2[nH]c3ccccc3c12`, the pIC50 is 5.33 with HeLa [1], 4.75 with A549, 4.66 in experiment [2] and below 4.52 in the experiment on PC-3 [3].
Take `Fc1ccc2nc(NCCN3CCNCC3)c3c4ccccc4[nH]c3c2c1`: the pIC50 is 5.27 with HeLa [1], 5.21 with A549, 5.57 in experiment [2] and 4.91 with PC-3 [3].
For `Oc1ccc(CCNc2nc3ccc(F)cc3c3[nH]c4ccccc4c23)cc1` the same measures were 5.88, 5.04, 5.11 and 5.20.
On to `Oc1ccc(Nc2nc3ccccc3c3[nH]c4ccccc4c23)cc1`, for which the negative-log IC50 (pIC50) was 5.81 in the experiment on HeLa [1]; 5.41 in the experiment on A549; 5.24 in [2]; 5.27 with PC-3 [3]; 4.59 in the experiment with Detroit 551.
With `Oc1ccc(CCNc2nc3ccccc3c3[nH]c4ccccc4c23)cc1O`, the pIC50 was 5.42 with HeLa [1], 4.99 in the experiment on A549, 5.18 in [2] and 4.82 with PC-3 [3].
The corresponding values for `NCCCCCCCNc1nc2ccccc2c2[nH]c3ccccc3c12` are 5.57, 5.65, 5.60 and 5.20.
For `COc1ccc(Nc2nc3ccccc3c3[nH]c4ccccc4c23)cc1` the same measures were 4.94, 4.96, 5.11 and 4.68.
`Cl.c1ccc2c(c1)nc(NCCCNCCCNc1nc3ccccc3c3[nH]c4ccccc4c13)c1c3ccccc3[nH]c21`: the pIC50 is 7.17 with HeLa [1]; 6.96 in the experiment with A549; 7.05 in experiment [2]; 7.10 in the experiment on PC-3 [3]; 5.70 in the experiment on Detroit 551. In addition, the inhibition entry in experiment [4] was “Active”. Further, the inhibition result in [5] was “inactive”. Moreover, in experiment [6], the inhibition entry was “Dose-dependent effect”. In addition, the “inhibition (INH)” value in the experiment with HeLa [7] is reported as 95%. The Activity entry with HeLa [8] was “Dose-dependent effect”; in the experiment with HeLa [9], “Dose-dependent effect”; with PC-3 [10], 30.6%; in the experiment on PC-3 [11] it was 72.6%; in the experiment with PC-3 [12] it was 40.3%; with PC-3 [13], 15.8%. For the same compound, the Activity is listed as 4.5% in the experiment on PC-3 [14], 2.7% in the experiment with PC-3 [15], 24.1% with PC-3 [16] and 8.7% with PC-3 [17]. Also, the outcome in the experiment on PC-3 [18], in the experiment on PC-3 [19] and in the experiment with PC-3 [20] was Active.
With `Fc1ccc2nc(NCCN3CCOCC3)c3c4ccccc4[nH]c3c2c1`, the negative-log IC50 (pIC50) in the experiment on HeLa [1] was 5.36; in the experiment with A549 it was 5.17; in experiment [2], 5.28; in the experiment with PC-3 [3], 5.16.
The corresponding values for `OCCNCCNc1nc2ccc(F)cc2c2[nH]c3ccccc3c12` are 5.83, 6.03, 5.88 and 5.19.
As to `Oc1cccc(Nc2nc3ccccc3c3[nH]c4ccccc4c23)c1`, the pIC50 with HeLa [1] was 4.99; in the experiment on A549, 4.99; in [2], 5.14; with PC-3 [3], 4.74; in the experiment on Detroit 551, 4.37.
Turning to `CN(CCCNc1nc2ccccc2c2[nH]c3ccccc3c12)CCCNc1nc2ccccc2c2[nH]c3ccccc3c12`, the negative logarithm of the IC50 (pIC50) was 6.05 in the experiment on HeLa [1]; 6.37 in the experiment with A549; 6.55 in experiment [2]; 5.70 in the experiment with PC-3 [3]; 5.67 in the experiment with Detroit 551.
In the case of `OCCNc1nc2ccccc2c2[nH]c3ccccc3c12`, the pIC50 was 6.21 in the experiment with HeLa [1]; 6.00 in the experiment with A549; 5.99 in [2]; 5.25 in the experiment on PC-3 [3]; 5.50 in the experiment with Detroit 551.
As for `NCCNCCNc1nc2ccccc2c2[nH]c3ccccc3c12`, the negative-log IC50 (pIC50) with HeLa [1] was 6.19; in the experiment with A549, 5.99; in [2] it was 5.66; in the experiment on PC-3 [3] it was 5.10; in the experiment on Detroit 551, 5.41.
With `c1ccc(Nc2nc3ccccc3c3[nH]c4ccccc4c23)cc1`, the pIC50 (in the experiment on HeLa [1]; in the experiment with A549; in experiment [2]; with PC-3 [3]) was below 4.52 throughout.
For the compound `Oc1ccc(CCNc2nc3ccccc3c3[nH]c4ccccc4c23)cc1`, the pIC50 was 6.23 in the experiment with HeLa [1]; 5.24 with A549; 5.28 in experiment [2]; 5.05 in the experiment with PC-3 [3]; 5.37 in the experiment with Detroit 551.
For `CN(C)CCNc1nc2ccccc2c2[nH]c3ccccc3c12` the same measures were 6.21, 6.08, 5.80, 5.24 and 5.66.
Turning to `COc1cccc2c1C(=O)c1c(O)c3c(c(O)c1C2=O)C[C@@](O)(C(=O)CO)C[C@@H]3O[C@H]1C[C@H](N)[C@H](O)[C@H](C)O1` [DOXORUBICIN], the negative-log IC50 (pIC50) was 6.48 with HeLa [1] and 5.75 with PC-3 [3].
With `c1ccc2c(c1)nc(NCCCCCCNc1nc3ccccc3c3[nH]c4ccccc4c13)c1c3ccccc3[nH]c21`, the pIC50 is 6.51 in the experiment with HeLa [1], 6.30 with A549, 5.83 in experiment [2] and 6.23 in the experiment on PC-3 [3].
